Data taken from patent US5179117A, “Antihypercholesterolemic 2-substituted imidazoles” (Du Pont Merck Pharmaceutical Company, priority 1991, dated 1993).
Where a name gives a salt, the structure may show the parent alone.

These molecules were tested against T1, acyl-CoA: cholesterol acyltransferase (ACAT) (Mus musculus, UniProt Q61263) (assay: Assay of the inhibition of cholesterol esterification in mammalian cells (J774.A1 macrophages, 14C-oleic acid incorporation into cholesteryl ester, ac-LDL loaded)). Details: murine macrophage-like cell line J774.A1, ac-LDL loaded, 14C-oleic acid pulse; read-out: Cholesterol Esterification IC50 (concentration at which ACAT activity is inhibited by 50%).
T1 construct: endogenous in cells; host or cells: J774.A1 murine macrophage-like cells
T1 sequence (Q61263 1-540): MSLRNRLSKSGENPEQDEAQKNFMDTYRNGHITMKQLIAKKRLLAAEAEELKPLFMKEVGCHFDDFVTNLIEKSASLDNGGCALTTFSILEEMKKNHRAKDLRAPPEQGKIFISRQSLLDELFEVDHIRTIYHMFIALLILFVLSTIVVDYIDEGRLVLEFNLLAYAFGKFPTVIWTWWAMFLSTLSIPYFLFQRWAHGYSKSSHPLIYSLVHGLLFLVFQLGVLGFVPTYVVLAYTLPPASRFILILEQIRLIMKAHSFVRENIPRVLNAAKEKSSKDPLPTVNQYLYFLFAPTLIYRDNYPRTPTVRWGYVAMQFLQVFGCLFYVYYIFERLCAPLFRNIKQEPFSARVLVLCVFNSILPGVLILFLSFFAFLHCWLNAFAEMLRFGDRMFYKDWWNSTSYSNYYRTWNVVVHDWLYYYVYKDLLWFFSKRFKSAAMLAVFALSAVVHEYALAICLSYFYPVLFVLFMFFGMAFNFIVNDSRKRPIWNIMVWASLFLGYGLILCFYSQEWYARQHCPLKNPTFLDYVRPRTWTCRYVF
Assay type: cell-based
Experimental: The esterification of cholesterol was determined in the murine macrophage-like cell line J774.A1. Cells were seeded in 35 mm wells at a density of 300,000 cells per well in 2 mls of Dulbecco's Eagle Medium (DMEM) supplemented with 10% fetal bovine serum (FBS). Cells were incubated at 37° C. in an atmosphere of 5% CO2 and 93% humidity. After 24 hours the media was changed to 0.68 mls 10% FBS-DMEM containing 34 μg of acetylated human low density lipoprotein (ac-LDL) to increase the intracellular concentration of cholesterol and promote esterification. At 41 hours, various inhibitors were added to the cells in DMSO (10 μl/ml maximum). At 43 hours, the cells were pulsed with 0.1 mM ^14 C-oleic acid (10,000 dpm/nmol) complexed with BSA (bovine serum albumin) to follow cholesterol ester formation. The experiment was terminated at 45 hours by washing the monolayers 3 time with 3 ml of Tris-buffered saline at 4° C. The lipids were extracted by incubating the monolayers with 1.5 ml of hexane: isopropanol (3:2, v/v) for 30 min. under gentle agitation. During this period, 10,000 dpm ^3 H-cholesteryl linoleate and 10 μg of cholesteryl oleate were added as an internal standard and carrier respectively. The organic solvent was removed and the cells were washed with an additional 1.0 ml of hexane: isopropanol which was combined with the original extract. The cells were allowed to dry overnight, digested with 1.5 ml of 0.2N sodium hydroxide for 1 hour and an aliquot of the solubilized protein used for protein determination using the Lowry method. The organic extract was taken to dryness, the residue resuspended in 100 μl of chloroform and the lipids separated on silica gel impregnated glass fiber plates using a hexane: diethylether: acetic acid (170:30:1, v/v/v) solvent system. Individual lipids were visualized with iodine and the cholesteryl ester spot cut out and transferred to scintillation vials to determine the amount of radioactivity. The conversion of oleic acid to cholesteryl ester in the control averaged […]/hour/mg protein and was increased upon the addition of ac-LDL to about […]/hour/mg protein. The inhibition of esterification by the compounds is shown in Table 2; the data are expressed as the concentration at which ACAT activity is inhibited by 50% (IC50).

SMILES | IC50 [nM]
COC(=O)[C@H](CCCCNC(=O)OCc1ccccc1)NC(=O)CCCSc1nc(-c2ccc(OC)cc2)c(-c2ccc(OC)cc2)[nH]1 [Example 1, N2-[4-[4,5-bis(4-methoxyphenyl)-1H-imidazol-2-ylthio]-1-oxobutyl]-N6-[(phenylmethoxy)carbonyl]-L-lysine, methyl ester] | 37
COC(=O)[C@H](CCCCN)NC(=O)CCCSc1nc(-c2ccc(OC)cc2)c(-c2ccc(OC)cc2)[nH]1 [Example 2, N2-[4-[4,5-bis(4-methoxyphenyl)-1H-imidazol-2-ylthio]-1-oxobutyl]-L-lysine, methyl ester hydrobromide] | 100000
COC(=O)[C@H](CCCCNC(=O)C12CC3CC(CC(C3)C1)C2)NC(=O)CCCSc1nc(-c2ccc(OC)cc2)c(-c2ccc(OC)cc2)[nH]1 [Example 3, N6-(1-adamantylcarbonyl)-N2-[4-[4,5-bis(4-methoxyphenyl)-1H-imidazol-2-ylthio]-1-oxobutyl]-L-lysine, methyl ester] | 386
COC(=O)[C@H](CCCCNC(=O)NCc1ccccc1)NC(=O)CCCSc1nc(-c2ccc(OC)cc2)c(-c2ccc(OC)cc2)[nH]1 [Example 4, N2-[4-[4,5-bis(4-methoxyphenyl)-1H-imidazol-2-ylthio]-1-oxobutyl]-N6-[(phenylmethyl)-aminocarbonyl]-L-lysine, methyl ester] | 601
COC(=O)[C@H](CCCCNC(C)=O)NC(=O)CCCSc1nc(-c2ccc(OC)cc2)c(-c2ccc(OC)cc2)n1C(C)=O [Example 5, N6-acetyl-N2-[4-[1-acetyl-4,5-bis(4-methoxyphenyl)-1H-imidazol-2-ylthio]-1-oxobutyl]-L-lysine, methyl ester] | 7150
COC(=O)[C@H](CCCCNC(C)=O)NC(=O)CCCSc1nc(-c2ccc(OC)cc2)c(-c2ccc(OC)cc2)[nH]1 [Example 6, N6-acetyl-N2-[4-[4,5-bis(4-methoxyphenyl)-1H-imidazol-2-ylthio]-1-oxobutyl]-L-lysine, methyl ester] | 10300
COc1ccc(-c2nc(SCCCC(=O)N[C@@H](CCCCNC(=O)OCc3ccccc3)C(=O)NC(C)C)[nH]c2-c2ccc(OC)cc2)cc1 [Example 7, phenylmethyl, (S)-[5-[[4-[4,5-bis(4-methoxyphenyl)-1H-imidazol-2-ylthio]-1-oxobutyl]amino]-6-[(1-methylethyl)amino]-6-oxohexyl]carbamate] | 1100
COC(=O)[C@H](CCCCNC(=O)OCc1ccccc1)NC(=O)CCCSc1nc(-c2ccc(N(C)C)cc2)c(-c2ccc(N(C)C)cc2)[nH]1 [Example 8, N2-[4-[4,5-bis[4-(dimethylamino)phenyl] -1H-imidazol-2-ylthio]-1-oxobutyl]-N6-[(phenylmethoxy)carbonyl]-L-lysine, methylester] | 4.9
CCCC[C@H](NC(=O)CCCSc1nc(-c2ccc(OC)cc2)c(-c2ccc(OC)cc2)[nH]1)C(=O)OC [Example 9, N-[4-[4,5-bis(4-methoxyphenyl)-1H-imidazol-2-ylthio]-1-oxobutyl]-norleucine, methyl ester] | 650
CCCCCC(=CCCCCSc1nc(-c2ccccc2)c(-c2ccccc2)[nH]1)C(=O)OCC [Example 10, ethyl, 7-(4,5-diphenyl-1H-imidazol-2-ylthio)-2-pentyl-2-heptenoate] | 4620
CCCCCC(=CCCCCSc1nc(-c2ccccc2)c(-c2ccccc2)[nH]1)C(=O)O [Example 11, 7-(4,5-diphenyl-1H-imidazol-2-ylthio)-2-pentyl-2-heptenoic acid] | 13400
